This assay concerns TFEB. In words: TFEB nuclear translocation assay, HeLa wt cells. The assay is classed as cell-based. The following applies: 2 hrs compound treatment, Table 1 does not say HeLa wt or TRPML1 KO. In short, it runs like this: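 HeLa wt, 2 hr compound, 37° C; 4% PFA fix; anti-TFEB (rabbit, 1:200, overnight 4° C) + Alexa 488 secondary, Hoechst. Imaged ×20, 4 fields/well. Readout: nuclear/ring Alexa 488 intensity ratio; AC50.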

The values below come from US20230104936A1, “TRPML MODULATORS” (Casma Therapeutics, Inc., priority 2019, published 2023).

For the compound `COCCS(=O)(=O)c1ccc(S(=O)(=O)Nc2ccccc2N2CCC(c3ccc(Cl)cc3F)CC2)cc1` [Compound A-701, N-{2-[4-(4-chloro-2-fluorophenyl)piperidin-1-yl]phenyl}-4-(2-methoxyethanesulfonyl)benzene-1-sulfonamide], the AC50 (Homo sapiens, HeLa, 2 h) is not above 2000 nM.

`CN1CC2(CCN(c3c(F)cccc3NS(=O)(=O)c3ccc(S(=O)(=O)N(C)C)cc3)CC2)OC1=O` [Compound A-764, N4-(3-fluoro-2-{3-methyl-2-oxo-1-oxa-3,8-diazaspiro[4.5]decan-8-yl}phenyl)-N1,N1-dimethylbenzene-1,4-disulfonamide] registered an AC50 (Homo sapiens, HeLa, 2 h) of 2010 to 8000 nM.

For the setting “Homo sapiens, HeLa, 2 h”, `CN(C)S(=O)(=O)c1ccc(S(=O)(=O)Nc2cccc(F)c2N2CCC(CN3C4CCC3COC4)CC2)cc1` [Compound A-790, N4-{3-fluoro-2-[4-({3-oxa-8-azabicyclo[3.2.1]octan-8-yl}methyl)piperidin-1-yl]phenyl}-N1,N1-dimethylbenzene-1,4-disulfonamide] had an AC50 not above 2000 nM.

Where the note is “Homo sapiens, HeLa, 2 h”, `CN(C)S(=O)(=O)c1ccc(S(=O)(=O)Nc2ccccc2N2CCN(C(=O)C3(C)CC(F)(F)C3)CC2)cc1` [Compound A-478, N4-{2-[4-(3,3-difluoro-1-methylcyclobutanecarbonyl)piperazin-1-yl]phenyl}-N1,N1-dimethylbenzene-1,4-disulfonamide] displayed an AC50 of 2010 to 8000 nM.

Where the note is “Homo sapiens, HeLa, 2 h”, `CP(C)(=O)c1ccc(S(=O)(=O)Nc2ccccc2N2CCC(c3ccc(F)cc3F)CC2)cc1` [Compound A-176, N-{2-[4-(2,4-difluorophenyl)piperidin-1-yl]phenyl}-4-(dimethylphosphoryl)benzene-1-sulfonamide] gave a concentration at half-maximal activity (AC50) not below 10000 nM.

For `COc1cccc(S(=O)(=O)Nc2cccc(Cl)c2N2CCOCC2)c1` [Compound A-367, N-[3-chloro-2-(morpholin-4-yl)phenyl]-3-methoxybenzene-1-sulfonamide], the AC50 (Homo sapiens, HeLa, 2 h) was in the range of 2010 to 8000 nM.

`CN(C)S(=O)(=O)c1ccc(S(=O)(=O)Nc2ccccc2N2CCN(C(=O)C3(C)CCCO3)CC2)cc1` (stereo not drawn) [Compound A-476, N1,N1-dimethyl-N4-{2-[4-(2-methyloxolane-2-carbonyl)piperazin-1-yl]phenyl}benzene-1,4-disulfonamide]: the AC50 (Homo sapiens, HeLa, 2 h) was 2010 to 8000 nM.

As to `CC(C)(C)C(=O)N1CCN(c2ccccc2NS(=O)(=O)Cc2ccc3c(c2)COCC3)CC1` [Compound A-501, 1-(3,4-dihydro-1H-2-benzopyran-7-yl)-N-{2-[4-(2,2-dimethylpropanoyl)piperazin-1-yl]phenyl}methanesulfonamide], the half-maximal activity concentration (AC50) (Homo sapiens, HeLa, 2 h) lay in the range of 2010 to 8000 nM.

In turn, `CC(c1cccc(F)c1N1CCOCC1)S(=O)(=O)c1ccc2c(c1)CCS2(=O)=O` (single isomer, unassigned) [Compound A-967, 5-((1-(3-fluoro-2-morpholinophenyl)ethyl)sulfonyl)-2,3-dihydrobenzo[b]thiophene 1,1-dioxide] displayed an AC50 not below 10000 nM.

Take `C[C@@H]1COC[C@H](C)N1C[C@H]1CCN(c2c(F)cccc2NS(=O)(=O)c2ccc(S(=O)(=O)N(C)C)cc2)C1` [Compound A-984]: the AC50 (Homo sapiens, HeLa, 2 h) was not above 2000 nM.

`CN(C)S(=O)(=O)c1ccc(S(=O)(=O)Nc2ccccc2N2CCC(C)(C(C)(C)O)CC2)cc1` [Compound A-522, N1-(2-(4-(2-hydroxypropan-2-yl)-4-methylpiperidin-1-yl)phenyl)-N4,N4-dimethylbenzene-1,4-disulfonamide] came in with a concentration at half-maximal activity (AC50) (Homo sapiens, HeLa, 2 h) of 2010 to 8000 nM.

For the compound `Cn1cc(S(=O)(=O)Nc2ccccc2N2CCN(c3ccc(Cl)cc3F)CC2)cn1` [Compound A-6, N-{2-[4-(4-chloro-2-fluorophenyl)piperazin-1-yl]phenyl}-1-methyl-1H-pyrazole-4-sulfonamide], the AC50 (Homo sapiens, HeLa, 2 h) was not below 10000 nM.

The compound `N#Cc1cccc(S(=O)(=O)Nc2ccccc2N2CCN(c3ccc(Cl)cc3F)CC2)c1` [Compound A-5, N-{2-[4-(4-chloro-2-fluorophenyl)piperazin-1-yl]phenyl}-3-cyanobenzene-1-sulfonamide] showed an AC50 (Homo sapiens, HeLa, 2 h) of 2010 to 8000 nM.

`Cc1ccc(S(=O)(=O)N2Cc3cccc(N4CCOCC4)c3C2)cc1` [Compound A-820, 2-(4-methylbenzenesulfonyl)-4-(morpholin-4-yl)-2,3-dihydro-1H-isoindole]: the concentration at half-maximal activity (AC50) (Homo sapiens, HeLa, 2 h) was not below 10000 nM.

Where the note is “Homo sapiens, HeLa, 2 h”, `CN(C)S(=O)(=O)c1ccc(S(=O)(=O)Nc2ccccc2N2CCN(CC(F)(F)C(F)F)CC2)cc1` [Compound A-551, N1,N1-dimethyl-N4-{2-[4-(2,2,3,3-tetrafluoropropyl)piperazin-1-yl]phenyl}benzene-1,4-disulfonamide] gave an AC50 not above 2000 nM.

`CCOC(=O)CC1(F)CCN(c2ccccc2NS(=O)(=O)c2ccc(S(=O)(=O)N(C)C)cc2)CC1` [Compound A-703, ethyl 2-(1-{2-[4-(dimethylsulfamoyl)benzenesulfonamido]phenyl}-4-fluoropiperidin-4-yl)acetate]: the AC50 (Homo sapiens, HeLa, 2 h) was not above 2000 nM.

Under “Homo sapiens, HeLa, 2 h”, `COCC1(C)CCN(c2ccccc2NS(=O)(=O)c2ccc3c(c2)CC(C)(C)O3)CC1` [Compound A-613, N-{2-[4-(methoxymethyl)-4-methylpiperidin-1-yl]phenyl}-2,2-dimethyl-2,3-dihydro-1-benzofuran-5-sulfonamide] gave an AC50 not above 2000 nM.

`CN(CC(C)(C)O)S(=O)(=O)c1ccc(S(=O)(=O)Nc2ccccc2N2CCC(c3c(F)cccc3F)CC2)cc1` [Compound A-224, N4-{2-[4-(2,6-difluorophenyl)piperidin-1-yl]phenyl}-N1-(2-hydroxy-2-methylpropyl)-N1-methylbenzene-1,4-disulfonamide] yielded a concentration at half-maximal activity (AC50) (Homo sapiens, HeLa, 2 h) not below 10000 nM.

The compound `CC(c1cccc(F)c1N1CCC(CN2C[C@@H](C)O[C@@H](C)C2)CC1)S(=O)(=O)c1ccc(S(=O)(=O)C(F)F)cc1` (single isomer, unassigned) [Compound A-807, 4-((1-(2-(1-((4-((difluoromethyl)sulfonyl)phenyl)sulfonyl)ethyl)-6-fluorophenyl)piperidin-4-yl)methyl)-2,6-dimethylmorpholine] came in with an AC50 (Homo sapiens, HeLa, 2 h) not above 2000 nM.

Turning to `COCC1(C)CCN(c2ccccc2NS(=O)(=O)c2cc(C3OCCO3)cs2)CC1` [Compound A-619, 4-(1,3-dioxolan-2-yl)-N-{2-[4-(methoxymethyl)-4-methylpiperidin-1-yl]phenyl}thiophene-2-sulfonamide], the concentration at half-maximal activity (AC50) (Homo sapiens, HeLa, 2 h) lay within 2010 to 8000 nM.

Where the note is “Homo sapiens, HeLa, 2 h”, `COc1ccc(S(=O)(=O)Nc2cccnc2N2CCN(c3ncc(Cl)cc3F)CC2)cc1` [Compound A-110, N-{2-[4-(5-chloro-3-fluoropyridin-2-yl)piperazin-1-yl]pyridin-3-yl}-4-methoxybenzene-1-sulfonamide] displayed an AC50 not below 10000 nM.

`Cc1ccc(N2CCOCC2)c(NS(=O)(=O)Cc2ccc3c(c2)COCC3)c1` [Compound A-629, 1-(3,4-dihydro-1H-2-benzopyran-7-yl)-N-[5-methyl-2-(morpholin-4-yl)phenyl]methanesulfonamide] returned a concentration at half-maximal activity (AC50) (Homo sapiens, HeLa, 2 h) of 2010 to 8000 nM.

The compound `CN(C)S(=O)(=O)c1ccc(S(=O)(=O)Nc2ccccc2N2CCC(C3CCCCO3)CC2)cc1` (stereo not drawn) [Compound A-435, N1,N1-dimethyl-N4-{2-[4-(oxan-2-yl)piperidin-1-yl]phenyl}benzene-1,4-disulfonamide] displayed an AC50 (Homo sapiens, HeLa, 2 h) not above 2000 nM.

The compound `CS(=O)(=O)c1ccc(S(=O)(=O)Nc2cc(F)ccc2N2CCC(c3c(F)cccc3F)CC2)cc1` [Compound A-154, N-{2-[4-(2,6-difluorophenyl)piperidin-1-yl]-5-fluorophenyl}-4-methanesulfonylbenzene-1-sulfonamide] returned an AC50 (Homo sapiens, HeLa, 2 h) not above 2000 nM.
